Test results taken from patent US10987389B2, “Anti-tumor traditional Chinese medicine microbial fermentation preparation and a preparation method and application thereof” (priority 2014, dated 2021).
Several values for one entry are separate records, joined by “and”; a condition that tells them apart may be missing. Equal entries are not always repeated.

Legend:
Type in all cases: in vivo
[1] = system: mouse transplantable Heps solid tumor; assay: Effects of oral administration of the compound powder on mouse Heps solid tumor; details: for Inhibition rate / Tumor weight (g) (X ± SD): mouse Heps solid tumor; for Weight (g) Beginning: body weight at beginning; for Weight (g) Beginning / Weight (g) End: Heps; for Weight (g) End: body weight at end
Procedure: (§1) A suspension of 10% was prepared from the traditional Chinese medicine compound powder provided by the present invention and then stored in a refrigerator. The suspension would be shaken up before use. Tumor strain: Heps, S180 and ESC were all commercially available products. Animal: Kunming mice provided by the animal laboratories of Shenyang Pharmaceutical University and China Pharmaceutical University. Method: referring to the following literatures: Literature 1: chief editor Xu Shuyun. Methodology of Pharmacological Experiment, Beijing: People's Medical Publishing House 1982, 1115-1125. Literature 2: China Academic Conference on Tumor Pharmacology and Chemotherapy: In-vivo Efficacy Test Procedures of Anticancer Drugs, internal data. 1989. 1. Effects of the Traditional Chinese Medicine Compound Powder on Heps Solid Tumor […]

[2] = system: mouse transplantable S180 solid tumor; assay: Effects of oral administration of the compound powder on mouse S180 solid tumor; details: Dosage 0.2 ml/10 g × 9
Procedure: as §1, with “1989. 2.” for “1989. 1.”, “on S180” for “on Heps”

[3] = system: mouse Ehrlich Ascites Cancer (EAC) solid tumor; assay: Effects of oral administration of the compound powder on mouse Ehrlich Ascites Cancer (EAC) solid tumor; details: Dosage 0.2 ml/10 g × 9
Procedure: as §1, with “1989. 3.” for “1989. 1.”, “on ESC” for “on Heps”

**Q.** For `O=c1[nH]cc(F)c(=O)[nH]1` [0.15% 5-Fu, 5-Fu], which Inhibition rate ([1]; Dosage 0.1 ml/10 g × 8) is on record?
**A.** Its Inhibition rate is 65.75% and 56.62%.

**Q.** What about the “Tumor weight (g) (X ± SD)” value ([1]; Dosage 0.1 ml/10 g × 8) of the same compound?
**A.** The value was 1.12 ± 0.85 g and 0.59 ± 0.27 g.

**Q.** And the Inhibition rate ([1]; Dosage 0.1 ml/10 g × 9)?
**A.** Its Inhibition rate is 58.55%.

**Q.** And the “Tumor weight (g) (X ± SD)” value ([1]; Dosage 0.1 ml/10 g × 9)?
**A.** The value was 1.05 ± 0.54 g.

**Q.** And the “Weight (g) Beginning” value ([1]; Dosage 0.1 ml/10 g × 8)?
**A.** Its value is 21.30 g and 18.95 g.

**Q.** And the “Weight (g) Beginning” value ([1]; Dosage 0.1 ml/10 g × 9)?
**A.** Its value is 21.00 g.

**Q.** And the “Weight (g) End” value ([1]; Dosage 0.1 ml/10 g × 8)?
**A.** The value was 24.80 g and 20.22 g.

**Q.** And the “Weight (g) End” value ([1]; Dosage 0.1 ml/10 g × 9)?
**A.** Its value is 25.86 g.

**Q.** What about the Inhibition rate ([2]; mouse S180 solid tumor) of the same compound?
**A.** The Inhibition rate was 61.80% and 60.53% and 42.62%.

**Q.** And the “Tumor weight (g) (X ± SD)” value ([2]; mouse S180 solid tumor)?
**A.** Its value is 1.36 ± 0.44 g and 1.33 ± 0.31 g and 1.87 ± 1.03 g.

**Q.** And the “Weight (g) Beginning” value ([2]; body weight at beginning, S180)?
**A.** The value was 21.80 g and 21.30 g and 20.78 g.

**Q.** And the “Weight (g) End” value ([2]; body weight at end, S180)?
**A.** Its value is 24.70 g and 23.60 g and 20.00 g.

**Q.** What about the Inhibition rate ([3]; mouse EAC solid tumor) of the same compound?
**A.** The Inhibition rate was 64.85% and 66.85% and 65.36%.

**Q.** What about the “Tumor weight (g) (X ± SD)” value ([3]; mouse EAC solid tumor) of the same compound?
**A.** The value was 1.23 ± 0.43 g and 1.31 ± 0.65 g and 1.33 ± 0.63 g.

**Q.** What about the “Weight (g) Beginning” value ([3]; body weight at beginning, EAC) of the same compound?
**A.** The value was 20.90 g and 21.45 g and 20.85 g.

**Q.** And the “Weight (g) End” value ([3]; body weight at end, EAC)?
**A.** Its value is 26.80 g and 22.20 g and 26.90 g.
